The results in this text go back to US10550105B2 (Ribon Therapeutics Inc., priority 2018, dated 2020).

The test deals with PARP7 (Homo sapiens (Human), UniProt Q7Z3E1). In words: Enzymatic assay for inhibition of PARP7: TR-FRET displacement of biotinylated Probe A from the TIPARP active site. The class given is binding. The settings on record: Table A-1. In short, it runs like this:
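Titrated compounds compete with the biotinylated probe; after an additional 30 min incubation at 25° C, time-delayed fluorescence (90 μs) is measured. Inhibition curves use a Hill coefficient that normally floats but may be held at 1.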

PARP7, sequence (Q7Z3E1 whole entry): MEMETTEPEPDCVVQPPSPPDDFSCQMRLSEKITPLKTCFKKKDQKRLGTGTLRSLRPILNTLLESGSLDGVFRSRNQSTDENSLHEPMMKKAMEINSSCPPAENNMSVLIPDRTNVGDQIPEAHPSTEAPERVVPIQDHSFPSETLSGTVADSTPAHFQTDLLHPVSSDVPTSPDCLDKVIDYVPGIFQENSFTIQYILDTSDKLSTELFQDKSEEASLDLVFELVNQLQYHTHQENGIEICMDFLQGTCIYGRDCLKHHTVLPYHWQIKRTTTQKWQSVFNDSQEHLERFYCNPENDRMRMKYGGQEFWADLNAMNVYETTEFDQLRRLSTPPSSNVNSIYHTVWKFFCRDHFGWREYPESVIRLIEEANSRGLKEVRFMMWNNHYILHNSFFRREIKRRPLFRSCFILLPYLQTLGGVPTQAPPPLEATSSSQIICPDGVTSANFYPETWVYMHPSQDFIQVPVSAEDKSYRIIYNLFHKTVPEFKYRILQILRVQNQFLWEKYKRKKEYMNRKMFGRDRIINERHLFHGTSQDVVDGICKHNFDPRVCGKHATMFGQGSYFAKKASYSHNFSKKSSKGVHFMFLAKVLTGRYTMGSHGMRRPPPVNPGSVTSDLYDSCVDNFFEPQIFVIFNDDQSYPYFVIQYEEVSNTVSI

`O=c1[nH]ncc(N2Cc3ccc(OC4CCCNC4)cc3C2)c1C(F)(F)F` (stereo not shown) [Example 244, 5-(5-(Piperidin-3-yloxy)isoindolin-2-yl)-4-(trifluoromethyl)pyridazin-3(2H)-one]: the concentration for half-maximal inhibition (IC50) – broadly, the point on the concentration scale where inhibition reaches its midpoint – was 100 to 1000 nM.
The result for `O=c1[nH]ncc(N2Cc3cc(F)c(OCCO)cc3C2)c1C(F)(F)F` [Example 245, 5-(5-Fluoro-6-(2-hydroxyethoxy)isoindolin-2-yl)-4-(trifluoromethyl)pyridazin-3(2H)-one] reads under 100 nM; that for `O=c1[nH]ncc(N2Cc3ccccc3[C@@H]2CO)c1C(F)(F)F` [Example 246, (R)-5-(1-(Hydroxymethyl)isoindolin-2-yl)-4-(trifluoromethyl)pyridazin-3(2H)-one], at least 1000 nM; that for `O=c1[nH]ncc(N2Cc3ccccc3[C@H]2CO)c1C(F)(F)F` [Example 247, (S)-5-(1-(Hydroxymethyl)isoindolin-2-yl)-4-(trifluoromethyl)pyridazin-3(2H)-one], at least 1000 nM.
The result for `CC(C)c1c(N2Cc3cccc(OC4CCNCC4)c3C2)cn[nH]c1=O` [Example 248, 4-Isopropyl-5-(4-(piperidin-4-yloxy)isoindolin-2-yl)pyridazin-3(2H)-one] reads at least 1000 nM; that for `CC1c2ccccc2CN1c1cn[nH]c(=O)c1C(F)(F)F` (stereo not shown) [Example 249, 5-(1-Methylisoindolin-2-yl)-4-(trifluoromethyl)pyridazin-3(2H)-one], 100 to 1000 nM; that for `C[C@H]1c2ccccc2CN1c1cn[nH]c(=O)c1C(F)(F)F` [Example 250, (S)-5-(1-Methylisoindolin-2-yl)-4-(trifluoromethyl)pyridazin-3(2H)-one], 100 to 1000 nM.
Then `C[C@@H]1c2ccccc2CN1c1cn[nH]c(=O)c1C(F)(F)F` [Example 251, (R)-5-(1-Methylisoindolin-2-yl)-4-(trifluoromethyl)pyridazin-3(2H)-one], with at least 1000 nM; and `CC(Oc1cccc2c1CN(c1cn[nH]c(=O)c1C(F)(F)F)C2)c1ccncc1` (stereo not shown) [Example 252, 5-(4-(1-(Pyridin-4-yl)ethoxy)isoindolin-2-yl)-4-(trifluoromethyl)pyridazin-3(2H)-one], with under 100 nM; and `O=c1[nH]ncc(N2Cc3cccc(N4CCOCC4)c3C2)c1C(F)(F)F` [Example 253, 5-(4-Morpholinoisoindolin-2-yl)-4-(trifluoromethyl)pyridazin-3(2H)-one], with 100 to 1000 nM.
`O=c1[nH]ncc(N2Cc3cccc(NCC4CCCO4)c3C2)c1C(F)(F)F` (stereo not shown) [Example 254, 5-(4-(((Tetrahydrofuran-2-yl)methyl)amino)isoindolin-2-yl)-4-(trifluoromethyl)pyridazin-3(2H)-one] displayed an IC50 of 100 to 1000 nM.
The result for `CN1CCN(CCOc2cccc3c2CN(c2cn[nH]c(=O)c2Cl)C3)CC1` [Example 255, 4-Chloro-5-(4-(2-(4-methylpiperazin-1-yl)ethoxy)isoindolin-2-yl)pyridazin-3(2H)-one] reads at least 1000 nM.
The result for `O=c1[nH]ncc(N2Cc3cccc(OCCN4CCCCC4)c3C2)c1Cl` [Example 256, 4-Chloro-5-(4-(2-(piperidin-1-yl)ethoxy)isoindolin-2-yl)pyridazin-3(2H)-one] reads at least 1000 nM; that for `CN1CCC(Oc2cccc3c2CN(c2cn[nH]c(=O)c2Cl)C3)CC1` [Example 257, 4-Chloro-5-(4-((1-methylpiperidin-4-yl)oxy)isoindolin-2-yl)pyridazin-3(2H)-one], at least 1000 nM; that for `CC(=O)N1CCC(Oc2cccc3c2CN(c2cn[nH]c(=O)c2Cl)C3)CC1` [Example 258, 5-(4-((1-Acetylpiperidin-4-yl)oxy)isoindolin-2-yl)-4-chloropyridazin-3(2H)-one], at least 1000 nM.
Then `CN1CCC(Oc2cccc3c2CN(c2cn[nH]c(=O)c2Cl)C3)C1` (stereo not shown) [Example 259, 4-Chloro-5-(4-((1-methylpyrrolidin-3-yl)oxy)isoindolin-2-yl)pyridazin-3(2H)-one], with at least 1000 nM; and `COCc1cccc2c1CN(c1cn[nH]c(=O)c1C(F)(F)F)C2` [Example 260, 5-(4-(Methoxymethyl)isoindolin-2-yl)-4-(trifluoromethyl)pyridazin-3(2H)-one], with under 100 nM.
As for `O=c1[nH]ncc(N2Cc3cccc(CO)c3C2)c1C(F)(F)F` [Example 261, 5-(4-(Hydroxymethyl)isoindolin-2-yl)-4-(trifluoromethyl)pyridazin-3(2H)-one], the IC50 lay within 100 to 1000 nM.
The result for `CNCc1cccc2c1CN(c1cn[nH]c(=O)c1C(F)(F)F)C2` [Example 262, 5-(4-((Methylamino)methyl)isoindolin-2-yl)-4-(trifluoromethyl)pyridazin-3(2H)-one] reads at least 1000 nM.
The result for `CN1CCC(Oc2ccc3c(c2)CN(c2cn[nH]c(=O)c2C(F)(F)F)C3)CC1` [Example 263, 5-(5-((1-Methylpiperidin-4-yl)oxy)isoindolin-2-yl)-4-(trifluoromethyl)pyridazin-3(2H)-one] reads under 100 nM; that for `CC(=O)NCC1c2ccccc2CN1c1cn[nH]c(=O)c1C(F)(F)F` (stereo not shown) [Example 264, N-((2-(6-Oxo-5-(trifluoromethyl)-1,6-dihydropyridazin-4-yl)isoindolin-1-yl)methyl)acetamide], at least 1000 nM.
The result for `O=c1[nH]ncc(N2Cc3cccc(Cl)c3C2)c1C(F)(F)F` [Example 265, 5-(4-Chloroisoindolin-2-yl)-4-(trifluoromethyl)pyridazin-3(2H)-one] reads under 100 nM.
The molecule `O=c1[nH]ncc(N2Cc3cccc(NCc4ccncc4)c3C2)c1C(F)(F)F` [Example 266, 5-(4-((Pyridin-4-ylmethyl)amino)isoindolin-2-yl)-4-(trifluoromethyl)pyridazin-3(2H)-one] registered an IC50 of under 100 nM.
Then `COc1ccc(F)c2c1CN(c1cn[nH]c(=O)c1C(F)(F)F)C2` [Example 267, 5-(4-Fluoro-7-methoxyisoindolin-2-yl)-4-(trifluoromethyl)pyridazin-3(2H)-one], with under 100 nM; and `O=c1[nH]ncc(N2Cc3cccc(OC4CCCOC4)c3C2)c1C(F)(F)F` (stereo not shown) [Example 268, 5-(4-((Tetrahydro-2H-pyran-3-yl)oxy)isoindolin-2-yl)-4-(trifluoromethyl)pyridazin-3(2H)-one], with under 100 nM.
Then `NC(=O)c1cccc2c1CN(c1cn[nH]c(=O)c1C(F)(F)F)C2` [Example 269, 2-(6-Oxo-5-(trifluoromethyl)-1,6-dihydropyridazin-4-yl)isoindoline-4-carboxamide], with under 100 nM; and `CN(CC1CCCO1)c1cccc2c1CN(c1cn[nH]c(=O)c1C(F)(F)F)C2` (stereo not shown) [Example 270, 5-(4-(Methyl((tetrahydrofuran-2-yl)methyl)amino)isoindolin-2-yl)-4-(trifluoromethyl)pyridazin-3(2H)-one], with under 100 nM; and `CC(Nc1cccc2c1CN(c1cn[nH]c(=O)c1C(F)(F)F)C2)c1ccncc1` (stereo not shown) [Example 271, 5-(4-((1-(Pyridin-4-yl)ethyl)amino)isoindolin-2-yl)-4-(trifluoromethyl)pyridazin-3(2H)-one], with under 100 nM.
Then `CCc1c(N2Cc3cccc(OC4CCNCC4)c3C2)cn[nH]c1=O` [Example 272, 4-Ethyl-5-(4-(piperidin-4-yloxy)isoindolin-2-yl)pyridazin-3(2H)-one], with at least 1000 nM.
With `COc1cc(F)c2c(c1)CN(c1cn[nH]c(=O)c1C(F)(F)F)C2` [Example 273, 5-(4-Fluoro-6-methoxyisoindolin-2-yl)-4-(trifluoromethyl)pyridazin-3(2H)-one], the IC50 was under 100 nM.
Then `COc1cc(F)cc2c1CN(c1cn[nH]c(=O)c1C(F)(F)F)C2` [Example 274, 5-(6-Fluoro-4-methoxyisoindolin-2-yl)-4-(trifluoromethyl)pyridazin-3(2H)-one], with under 100 nM.
The result for `NCC1c2ccccc2CN1c1cn[nH]c(=O)c1C(F)(F)F` (stereo not shown) [Example 275, 5-(1-(Aminomethyl)isoindolin-2-yl)-4-(trifluoromethyl)pyridazin-3(2H)-one] reads at least 1000 nM.
The result for `CC(=O)N(C)CC1c2ccccc2CN1c1cn[nH]c(=O)c1C(F)(F)F` (stereo not shown) [Example 276, N-Methyl-N-((2-(6-oxo-5-(trifluoromethyl)-1,6-dihydropyridazin-4-yl)isoindolin-1-yl)methyl)acetamide] reads at least 1000 nM; that for `CN(C)C(=O)c1cccc2c1CN(c1cn[nH]c(=O)c1C(F)(F)F)C2` [Example 277, N,N-Dimethyl-2-(6-oxo-5-(trifluoromethyl)-1,6-dihydropyridazin-4-yl)isoindoline-4-carboxamide], 100 to 1000 nM; that for `CC(O)c1cccc2c1CN(c1cn[nH]c(=O)c1C(F)(F)F)C2` (stereo not shown) [Example 278, 5-(4-(1-Hydroxyethyl)isoindolin-2-yl)-4-(trifluoromethyl)pyridazin-3(2H)-one], 100 to 1000 nM.
Consider `O=c1[nH]ncc(N2Cc3cc(F)c(OC4CCNCC4)cc3C2)c1C(F)(F)F` [Example 279, 5-(5-Fluoro-6-(piperidin-4-yloxy)isoindolin-2-yl)-4-(trifluoromethyl)pyridazin-3(2H)-one], for which the IC50 is under 100 nM.
With `O=c1[nH]ncc(N2Cc3ccncc3C2)c1C(F)(F)F` [Example 280, 5-(1,3-Dihydro-2H-pyrrolo[3,4-c]pyridin-2-yl)-4-(trifluoromethyl)pyridazin-3(2H)-one], the IC50 fell in the range of 100 to 1000 nM.
The molecule `CN(C)C1CCN(c2cccc3c2CN(c2cn[nH]c(=O)c2C(F)(F)F)C3)CC1` [Example 281, 5-(4-(4-(Dimethylamino)piperidin-1-yl)isoindolin-2-yl)-4-(trifluoromethyl)pyridazin-3(2H)-one] displayed a half-inhibitory concentration (IC50) of 100 to 1000 nM.
Then `CN(c1cccc2c1CN(c1cn[nH]c(=O)c1C(F)(F)F)C2)C1CCOCC1` [Example 282, 5-(4-(Methyl(tetrahydro-2H-pyran-4-yl)amino)isoindolin-2-yl)-4-(trifluoromethyl)pyridazin-3(2H)-one], with 100 to 1000 nM; and `O=c1[nH]ncc(N2Cc3c(F)ccc(OCCO)c3C2)c1C(F)(F)F` [Example 283, 5-(4-Fluoro-7-(2-hydroxyethoxy)isoindolin-2-yl)-4-(trifluoromethyl)pyridazin-3(2H)-one], with 100 to 1000 nM.
